Results: patent US20260256870A1, “SKIN COMPOSITION” (Eaderm Co., Ltd., priority 2019, published 2026)
Entries after “also recorded” stand apart in the source; their conditions may differ.

Assays:
COL17A1 = COL17A1 expression in human epidermal keratinocytes by high content imaging (HCS); assay type: cell-based
Protocol: The present inventors further searched for substances that induce or maintain the expression of COL17A1. Human epidermal keratinocytes were seeded in 384-well plates, cultured for 48 hours after addition of reagents, immunostained with an anti-COL17A1 antibody and a fluorescently labeled secondary antibody, and then the fluorescence intensity per cell was detected using a high content imaging system (HCS: High Content Screening). In addition to cell counting with DAPI, the expression level of COL17A1 was quantified.

[1] = system: human epidermal keratinocytes; test: Colony formation assay using human epidermal keratinocytes; assay type: cell-based
Description: To test whether COL17A1-mediated SCD maintains clonal proliferation of epidermal stem cell clones, the present inventors used a colony formation assay, which is an in vitro assay said to be the gold standard for assessing the self-renewal ability of epidermal stem cells, including cells in the tail epidermis.

[2] = system: SDS-induced skin roughness, medial forearm; test: Human skin roughness induced by 10% SDS (Example 18); assay type: in vivo
Protocol: Two subjects were administered with substances that promote the self-renewal ability of epidermal stem cells (apocynin, ebselen, and celecoxib) using a test of skin roughness induced by 10% sodium lauryl sulfate (SDS) solution (a test that serves as a standard for chemical-induced skin damage in humans), and the effect of the skin roughness-preventing or -ameliorating agent in improving skin roughness was evaluated. Six 1.5-cm square areas were placed on the subject's medial forearm, and each was subjected to the treatments below. • SDS non-treated (70% ethanol treatment) group • SDS treatment+solvent (50% ethanol/PBS) application group. • SDS treatment+apocynin (200 μM) solution application group • SDS treatment+ebselen (0.25%) solution application group. • SDS treatment+celecoxib (2%) solution application group A cotton ball permeated with 500 μL of 10% SDS solution (dissolved in 70% ethanol) was applied to the test area for 30 minutes each on day 0 and day 1. Apocynin was applied on day 0 before SDS treatment, applied after treatment, and then applied to the test area once daily until day 9. The TEWL at each test area was measured before and after SDS treatment, and daily from day 1 to day 7. For each area, the TEWL value before SDS treatment was subtracted from the TEWL value on the measurement day, and this value was defined as “ΔTEWL”, and this value was used for evaluation. The test area was photographed with a digital camera and with PRIMOS-CR (Canfield Scientific, Inc., USA, Integral Corporation), a high-resolution three-dimensional image analyzer. For the PRIMOS images, the Primos OMC3_22 software was used to measure the degree of skin roughness in terms of “Ry (maximum height)” and “Rz (ten-point average roughness)”, which are parameters representing surface roughness in the height direction. For each site, the value obtained by subtracting the Rz or Ry value of the SDS non-treated control from the Rz or Ry value on the measurement day was defined as “ΔRz” and “ΔRy”, and these values were used for evaluation.

[3] = apocynin 200 μM, ebselen 0.25%, celecoxib 2%

COc1cc(C(C)=O)ccc1O [Apocynin]
COL17A1 expression level (control ratio) (COL17A1; Table 1, human epidermal keratinocytes, 48 hours after addition of reagents, fluorescence intensity per cell): ⊚ (one double circle (⊚) represents a 1.2-fold or greater increase)
COL17A1 expression / amount of COL17A1 in cultured keratinocytes compared to the control (COL17A1; in vitro, HCS (FIG. 15)): significantly increased; also recorded: maintain or induce the COL17A1 expression; also recorded: induce the COL17A1 expression
Colony area (control ratio) ([1]; Table 1): ⊚ (one double circle (⊚) indicates maintenance of 1.0-1.2-fold)
Colony number (control ratio) ([1]; Table 1): ⊚ (one double circle (⊚) indicates maintenance of 1.0-1.2-fold)
area of colonies per well ([1]; compared to the control (FIG. 16)): significantly increased
number of colonies ([1]; compared to the control, n=3 wells (FIG. 13, FIG. 16)): significantly increased
average size of the top five colonies ([1]; compared to the control, n=3 wells (FIG. 14)): significantly increased
colony size ([1]; human epidermal keratinocytes): significantly increased
number of colonies with a diameter greater than 2 mm ([1]; n=3 wells (FIG. 13 right)): significantly increased
skin roughness (analysis of skin texture from high-resolution photographs) [2, 3]: significantly reduced
ΔRy [2, 3]: significantly decreased
ΔRz [2, 3]: significantly decreased
ΔTEWL [2, 3]: significantly decreased
pigmentation / healing of the affected area ([2]; day 16, apocynin 200 μM (FIG. 31)): healed; also recorded: almost no pigmentation
